One experiment has as its system Hsp70. Briefly: Hsp90 cell based functional assay (Western blot for Hsp70, Hsp90). Particulars: for Hsp 70 agonist activity, result in words: alternative result printed in the same cell; for Hsp 70 agonist activity: EC50 at which Hsp70 is increased two-fold: cells treated 24 h, Western blot; for Hsp 70 agonist activity: concentration at which Hsp70 is increased >2-fold: fold noted in cell: >2-fold; for pEC50: read-out: Hsp 70 agonist activity.

Experiment [1] concerns the target truncated alpha-Hsp90 protein (Homo sapiens, UniProt P07900). Briefly: Hsp90 biochemical assay (fluorescence polarization). It is filed as binding. The note with it: footnotes (1)-(9) of Table 3, read-out: Hsp90 FP assay result. Here is the method:
Hsp90 inhibitory activity of the compounds of the invention was assessed using a fluorescence polarization (FP) assay using FITC-labeled geldanamycin and truncated alpha-Hsp90 protein. Measurement of binding activity was performed on BMG CLARIOstar® reader (BMG Labtech, Ortenberg, Germany).
(In fluorescence polarisation assays a small probe gives low polarisation when free and higher when bound to something large.)

In a further experiment the test system is T1, His-tagged-Hsp90.
T1 construct: fused on or other part: His tag (captured on Ni2+-coated beads)
Briefly: Hsp90 biochemical assay (AlphaLISA). It is filed as binding. The note with it: IC50 class; AlphaLISA (primary assay); read-out: Hsp90 inhibitory activity. Here is the method: This assay employs biotinylated geldanamycin, His-tagged-Hsp90, and Ni^+2 coated beads. This assay is homogenous and miniaturized to 384-well plates. Measurement of binding activity was performed on an Envision reader. […] This assay is the primary assay for evaluating compounds of the invention.
(Bead proximity is the source of the signal in Alpha formats.)

In another experiment the test system is tau. The note with it: Corcoran et al., 2010; cited from earlier work.

Results on 22 molecules are retold here after patent US10336768B2, “Pyrimidine compounds and methods using the same” (Yuma Therapeutics, Inc., priority 2014, dated 2019).

pEC50, pIC50: −log10 of the molar value. Several values for one entry are separate records, joined by “and”; a condition that tells them apart may be missing. Equal values may be shown once.

Experimental for Hsp70: Cells were treated with compounds of the invention for 24 h and then lysed in a buffer containing NP-40, orthovanadate, and protease inhibitors. Western blots were performed with antibodies specific to Hsp70, Hsp90, or actin (as control).

`COc1cc(-c2nc(N)nc3ccn(C)c23)c(Cl)cc1F` [compound 26]: in the experiment on Hsp70, the “Hsp 70 agonist activity, result in words” value was “no observable effect” and the “Hsp 70 agonist activity: EC50 at which Hsp70 is increased two-fold” value came out at 3.3 µM. Also, the pIC50 in experiment [1] is 5.07 and 4.95. In addition, the pIC50 in the experiment on His-tagged-Hsp90 is 5.40 to 6.00.

With `Cc1nc(N)nc(-c2c(Cl)cc(Cl)c3c2CCO3)c1C` [compound 10, 4-(5,7-Dichloro-2,3-dihydrobenzofuran-4-yl)-5,6-dimethylpyrimidin-2-amine], the “Hsp 70 agonist activity: concentration at which Hsp70 is increased >2-fold” value with Hsp70 is >2-fold at 0.4 μM. The pIC50 in experiment [1] is 5.64 and 5.62; in the experiment on His-tagged-Hsp90, > 6.00.

In the case of `Cn1ccc2nc(N)nc(-c3c(Cl)cc(Cl)c4c3CCO4)c21` [compound 21, 4-(5,7-dichloro-2,3-dihydrobenzofuran-4-yl)-5-methyl-5H-pyrrolo[3,2-d]pyrimidin-2-amine], in the experiment with Hsp70, the pEC50 is < 5.00. Besides, the pIC50 in the experiment with His-tagged-Hsp90 is 5.40 to 6.00.

For the molecule `CCn1ccc2nc(N)nc(-c3c(Cl)cc(Cl)c4c3CCO4)c21` [compound 22, 4-(5,7-dichloro-2,3-dihydrobenzofuran-4-yl)-5-ethyl-5H-pyrrolo[3,2-d]pyrimidin-2-amine], in the experiment with Hsp70, the pEC50 was < 5.00. Also, the pIC50 in the experiment on His-tagged-Hsp90 is 5.00 to 5.40.

For the molecule `COc1cc(-c2c(Cl)cc(Cl)c3c2CCO3)nc(N)n1` [compound 8, 4-(5,7-dichloro-2,3-dihydrobenzofuran-4-yl)-6-methoxypyrimidin-2-amine], the pEC50 in the experiment on Hsp70 is < 5.00. Also, the pIC50 in experiment [1] is 5.26 and 5.21; in the experiment with His-tagged-Hsp90 it was > 6.00.

As to `O=[Se](=O)(O)O` [Sodium selenate], in the experiment on tau, the “efficacy in TMHT tau model” value was “effective in the TMHT tau model”.

For `COc1cc(-c2nc(N)nc3c2CCC3)c(Cl)cc1Cl` [compound 12, 4-(2,4-Dichloro-5-methoxyphenyl)-6,7-dihydro-5H-cyclopenta[d]pyrimidin-2-amine], the “Hsp 70 agonist activity: concentration at which Hsp70 is increased >2-fold” value in the experiment with Hsp70 was >2-fold at ≥10 μM. Also, the pIC50 in experiment [1] was 5.77; in the experiment with His-tagged-Hsp90 it was > 6.00.

Regarding `CC(C)c1cc(-c2c(Cl)cc(Cl)c3c2CCO3)nc(N)n1` [compound 7, 4-(5,7-dichloro-2,3-dihydrobenzofuran-4-yl)-6-isopropylpyrimidin-2-amine], the pEC50 with Hsp70 was < 5.00. Also, the pIC50 was < 5.00 in experiment [1] and > 6.00 in the experiment with His-tagged-Hsp90.

Regarding `COc1cc(-c2nc(N)nc3cc[nH]c23)c(Cl)cc1Cl` [compound 19, 4-(2,4-Dichloro-5-methoxyphenyl)-5H-pyrrolo[3,2-d]pyrimidin-2-amine], the “Hsp 70 agonist activity: concentration at which Hsp70 is increased >2-fold” value with Hsp70 is >2-fold at 0.4-1 μM. Further, the pIC50 in the experiment on His-tagged-Hsp90 was > 6.00.

In the case of `CCOC(=O)c1cc2c(-c3c(Cl)cc(Cl)c4c3CCO4)nc(N)nc2s1` [compound 23, Ethyl-2-amino-4-(5,7-dichloro-2,3-dihydrobenzofuran-4-yl)thieno[2,3-d]pyrimidine-6-carboxylate], in the experiment with Hsp70, the “Hsp 70 agonist activity: EC50 at which Hsp70 is increased two-fold” value was 3.3 µM. In addition, the pIC50 in experiment [1] is 4.95; in the experiment with His-tagged-Hsp90 it was 5.00 to 5.40.

Turning to `COc1cc(-c2nc(N)nc(C)c2C)c(Cl)cc1Cl` [compound 9, 4-(2,4-Dichloro-5-methoxyphenyl)-5,6-dimethylpyrimidin-2-amine], in the experiment on Hsp70 (fold noted in cell: 1.5-fold), the “Hsp 70 agonist activity: concentration at which Hsp70 is increased 1.5-fold” value is on record as 1.5-fold at 1 μM. Moreover, the pIC50 in experiment [1] is 6.00 and 5.85; with His-tagged-Hsp90, > 6.00.

Consider `Cc1cc(-c2c(Cl)cc(Cl)c3c2CCO3)nc(N)n1` [compound 5, 4-(5,7-Dichloro-2,3-dihydrobenzofuran-4-yl)-6-methylpyrimidin-2-amine], for which, in the experiment with Hsp70, the “Hsp 70 agonist activity: concentration at which Hsp70 is increased >2-fold” value is on record as >2 fold at 0.4-1.0 μM. For the same molecule, the pIC50 in the experiment on His-tagged-Hsp90 is > 6.00.

`CCNC(=O)c1cc2c(-c3c(Cl)cc(Cl)c4c3CCO4)nc(N)nc2s1` [compound 24, 2-amino-4-(5,7-dichloro-2,3-dihydrobenzofuran-4-yl)-N-ethylthieno[2,3-d]pyrimidine-6-carboxamide]: the “Hsp 70 agonist activity: EC50 at which Hsp70 is increased two-fold” value in the experiment on Hsp70 stood at 0.4 µM. Further, the pIC50 in the experiment with His-tagged-Hsp90 is > 6.00.

On to `Nc1nc2c(c(-c3c(Cl)cc(Cl)c4c3CCO4)n1)CCC2` [compound 13, 4-(5,7-Dichloro-2,3-dihydrobenzofuran-4-yl)-6,7-dihydro-5H-cyclopenta[d]pyrimidin-2-amine], for which the pEC50 in the experiment on Hsp70 was < 5.00. Also, the pIC50 is 5.74 in experiment [1] and > 6.00 in the experiment with His-tagged-Hsp90.

For the molecule `COc1nc(N)nc(-c2cc(OC)c(Cl)cc2Cl)n1` [compound 36], in the experiment on Hsp70, the “Hsp 70 agonist activity: EC50 at which Hsp70 is increased two-fold” value is >10 µM. Also, the pIC50 in the experiment with His-tagged-Hsp90 is > 6.00.

As to `CN(C)CCOc1cc(-c2nc(N)nc3c2CCC3)c(Cl)cc1Cl` [compound 14, 4-(2,4-dichloro-5-(2-(dimethylamino)ethoxy)phenyl)-6,7-dihydro-5H-cyclopenta[d]pyrimidin-2-amine], the “Hsp 70 agonist activity: concentration at which Hsp70 is increased >2-fold” value with Hsp70 is listed as >2-fold at 10 μM. The pIC50 with His-tagged-Hsp90 is > 6.00.

Take `COc1cc(-c2nc(N)nc3cc[nH]c23)c(Cl)cc1F` [compound 25]: the “Hsp 70 agonist activity, result in words” value with Hsp70 is given as “no observable effect”. Besides, in the experiment on Hsp70 (concentration not given, alternative result: no observable effect), the “Hsp 70 agonist activity: fold increase of Hsp70” value stood at 1.5 fold. In addition, the pIC50 in experiment [1] was 4.92 and 4.71; in the experiment with His-tagged-Hsp90 it was 5.00 to 5.40.

In the case of `NC(=O)c1cc2c(-c3c(Cl)cc(Cl)c4c3CCO4)nc(N)nc2s1` [compound 29], in the experiment with Hsp70, the “Hsp 70 agonist activity: EC50 at which Hsp70 is increased two-fold” value stood at 0.4 µM. Besides, the pIC50 with His-tagged-Hsp90 is > 6.00.

Consider `CCc1cc(-c2c(Cl)cc(Cl)c3c2CCO3)nc(N)n1` [compound 6, 4-(5,7-dichloro-2,3-dihydrobenzofuran-4-yl)-6-ethylpyrimidin-2-amine], for which the “Hsp 70 agonist activity: EC50 at which Hsp70 is increased two-fold” value in the experiment with Hsp70 is ≥10 µM. Moreover, in the experiment with His-tagged-Hsp90, the pIC50 is > 6.00.

Consider `COc1cc(-c2cc(Cl)nc(N)n2)c(Cl)cc1Cl` [compound 39], for which the “Hsp 70 agonist activity: EC50 at which Hsp70 is increased two-fold” value in the experiment with Hsp70 came to 0.4 µM. Further, the pIC50 in the experiment on His-tagged-Hsp90 was > 6.00.

Turning to `CCC(=O)c1cc2c(-c3c(Cl)cc(Cl)c4c3CCO4)nc(N)nc2s1` [compound 76, 1-(2-amino-4-(5,7-dichloro-2,3-dihydrobenzofuran-4-yl)thieno[2,3-d]pyrimidin-6-yl)propan-1-one], the pIC50 with His-tagged-Hsp90 is > 6.00.

Take `CN(C)CCOc1cc(-c2nc(N)nc3cc[nH]c23)c(Cl)cc1Cl` [compound 27]: the “Hsp 70 agonist activity: EC50 at which Hsp70 is increased two-fold” value in the experiment with Hsp70 is 10 µM. Further, in the experiment on His-tagged-Hsp90, the pIC50 was 5.40 to 6.00.
